Data on two compounds can be found in paper PMC6691816, “Discovery of aminopyridine-containing spiro derivatives as EGFR mutations inhibitors” (Journal of Enzyme Inhibition and Medicinal Chemistry, 2019).

One may read the IC50 as the point on the concentration scale where inhibition reaches its midpoint. The low end stands for greater potency, the high end for weaker potency.

Type in all cases: biochemical
The target of one test is EGF-R L858R (Homo sapiens, UniProt P00533, L858R). Description: Radiometric protein kinase IC50 assay (33PanQinase). How it is done:
(§1) The compounds were serially diluted in semi-log steps with 100% DMSO in a 96 well microtiter plate. The concentration range of this serial dilution was 1 × 10^−3 M to 3 × 10^−8 M. Directly before use the test compounds were further diluted 1:10 with water, resulting in a concentration range from 1 × 10^−4 M to 3 × 1 0^−9 M in 10% DMSO. For the assays, 5 μL from each concentration were transferred into the assay. The final volume of the assay was 50 μL. The compounds were tested at 10 final assay concentrations in the range from 1 × 10^−5 M to 3 × 10^−10 M. The final DMSO concentration in the reaction cocktails was 1% in all cases.
(§2) A radiometric protein kinase assay (33PanQinase® Activity Assay) was used for measuring the kinase activity of the 9 protein kinases. All kinase assays were performed in 96-well FlashPlatesTM from Perkin Elmer (Boston, MA, USA) in a 50 μL reaction volume. The reaction cocktail was pipetted in 4 steps in the following order: 10 μL of non-radioactive ATP solution (in H2O), 25 μL of assay buffer/[γ-33P]-ATP mixture, 5 μL of test sample in 10% DMSO, 10 μL of enzyme/substrate mixture. The assay for all protein kinases contained 70 mM HEPES-NaOH pH 7.5, 3 mM MgCl2, 3 mM MnCl2, 3 μM Na-orthovanadate, 1.2 mM DTT, ATP, [γ-33P]-ATP, protein kinase, and substrate.The reaction cocktails were incubated at 30 °C for 60 min. The reaction was stopped with 50 μL of 2% (v/v) H3PO4, plates were aspirated and washed two times with 200 μL 0.9% (w/v) NaCl. Incorporation of 33Pi (counting of “cpm”) was determined with a microplate scintillation counter (Microbeta, Wallac). All assays were performed with a BeckmanCoulter Biomek 2000/SL robotic system.
(§3) For each kinase, the median value of the cpm of three wells with complete reaction cocktails, but without kinase, was defined as “low control” (n = 3). This value reflects unspecific binding of radioactivity to the plate in the absence of protein kinase but in the presence of the substrate. Additionally, for each kinase the median value of the cpm of three other wells with the complete reaction cocktail, but without any compound, was taken as the “high control”, i.e. full activity in the absence of any inhibitor (n = 3). The difference between high and low control was taken as 100% activity for each kinase. As part of the data evaluation the low control value of each kinase was subtracted from the high control value as well as from their corresponding “compound values”. The residual activity (in %) for each compound well was calculated by using the following formula: Res. Activity (%) = 100 × [(cpm of compound – low control)/(high control – low control)]
(§4) Based on each 10 corresponding residual activities, IC50 values were calculated using Prism 5.04 for Windows. The mathematical model used was “Sigmoidal response (variable slope)” with parameters “top” fixed at 100% and “bottom” at 0%. The fitting method used was a least-squares fit.

Another test deals with EGF-R d752-759 (Homo sapiens, UniProt P00533, DEL752-759). Described as above. How it is done: as §1, §2, §3, §4
In a further test the target is EGF-R T790M (Homo sapiens, UniProt P00533, T790M). The test is described as above. How it is done:
as §1, §2, §3, §4

A further test has as its target EGF-R L861Q (Homo sapiens, UniProt P00533, L861Q). The description is as above. As for the experimental part: as §1, §2, §3, §4
The target in test [1] is T1, HER2 (Homo sapiens, UniProt P04626).
T1 construct: purchased ProQinase GmbH
T1 sequence (P04626 23-1255): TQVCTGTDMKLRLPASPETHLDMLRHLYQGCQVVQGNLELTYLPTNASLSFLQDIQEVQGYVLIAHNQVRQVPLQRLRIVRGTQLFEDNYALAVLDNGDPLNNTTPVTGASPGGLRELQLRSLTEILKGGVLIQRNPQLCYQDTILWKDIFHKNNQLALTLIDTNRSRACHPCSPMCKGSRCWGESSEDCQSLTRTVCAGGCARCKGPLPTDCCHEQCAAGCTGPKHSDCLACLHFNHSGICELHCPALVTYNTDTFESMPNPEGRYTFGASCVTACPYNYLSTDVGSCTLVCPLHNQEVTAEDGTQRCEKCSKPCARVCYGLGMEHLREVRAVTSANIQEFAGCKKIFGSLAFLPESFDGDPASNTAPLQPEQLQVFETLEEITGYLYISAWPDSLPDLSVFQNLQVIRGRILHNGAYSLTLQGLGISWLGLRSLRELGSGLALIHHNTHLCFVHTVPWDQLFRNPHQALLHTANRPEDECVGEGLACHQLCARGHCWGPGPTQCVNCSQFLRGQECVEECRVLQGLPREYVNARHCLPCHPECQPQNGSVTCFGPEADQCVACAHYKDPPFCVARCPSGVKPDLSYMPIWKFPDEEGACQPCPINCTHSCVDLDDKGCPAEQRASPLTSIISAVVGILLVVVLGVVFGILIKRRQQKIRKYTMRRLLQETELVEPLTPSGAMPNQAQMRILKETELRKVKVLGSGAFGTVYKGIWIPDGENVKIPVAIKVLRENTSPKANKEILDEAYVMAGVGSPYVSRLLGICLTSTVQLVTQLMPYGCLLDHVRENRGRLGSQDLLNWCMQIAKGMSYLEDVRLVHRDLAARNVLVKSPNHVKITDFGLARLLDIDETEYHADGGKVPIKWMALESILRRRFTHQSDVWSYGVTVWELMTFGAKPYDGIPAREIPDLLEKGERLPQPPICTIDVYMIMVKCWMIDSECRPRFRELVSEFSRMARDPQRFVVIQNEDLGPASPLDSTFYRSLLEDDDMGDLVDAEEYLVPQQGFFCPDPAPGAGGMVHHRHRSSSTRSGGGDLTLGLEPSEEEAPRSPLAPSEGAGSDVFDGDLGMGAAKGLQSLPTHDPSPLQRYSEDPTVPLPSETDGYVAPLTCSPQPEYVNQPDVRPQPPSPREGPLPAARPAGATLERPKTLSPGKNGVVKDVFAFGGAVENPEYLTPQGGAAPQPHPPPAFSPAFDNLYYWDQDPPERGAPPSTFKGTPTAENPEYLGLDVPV
The test is described as above. How it is done:
as §1, §2, §3, §4

The target in the next test is EGF-R T790M/L858R (Homo sapiens, UniProt P00533, L858R/T790M). The description is as above. To be noted: for inhibitory activity on EGFR mutant containing both T790M and L858R, times stronger than neratinib: ratio of IC50 values to neratinib. How it is done:
as §1, §2, §3, §4

Test [2] has as its target T2, EGF-R wt (Homo sapiens, UniProt P00533).
T2 construct: purchased ProQinase GmbH
Described as above. Conditions: for biochemical activity on EGFR wt compared with neratinib: not more than that of neratinib. As for the experimental part:
as §1, §2, §3, §4

The target in the next test is EGF-R d747-749/A750P (Homo sapiens, UniProt P00533, A750P/DEL747-749). Described as above. As for the experimental part: as §1, §2, §3, §4
A further test addresses EGF-R G719S (Homo sapiens, UniProt P00533, G719S). Described as above. As for the experimental part: as §1, §2, §3, §4
The target of test [3] is T1, HER2. Description: HER2 protein kinase assay (33PanQinase), single concentration. Conditions: 0.5 μM (5 × 10^−7 M), singlicate, % of control activity; read-out: Residual activity under 0.5 μM drug concentration (%) HER2. How it is done: (§5) The inhibitory profile of 16 compounds was determined using two protein kinases. The compounds were tested at a concentration of 5 × 1 0^−7 M, in singlicate. The compounds were solved and diluted to 5 × 10^−5 M stock solutions in 100% DMSO according to the customer-filled CSF. 10 μL of each of the stock solutions were transferred into […] of a 96-well, Column 1 and 2 of the plate were filled with 10 μL100% DMSO. The plate is in the following referred to as “copy plate”. In the process, 90 μL H2O were added to each well of the copy plate. To minimize potential compound precipitation, the H2O was added to each well only a few minutes before the transfer of the compound solutions into the assay plates. The plate was shaken thoroughly, resulting in a “compound dilution plate” with a compound concentration of 5 × 10^−6 M/10% DMSO. This plate was used for the transfer of 5 μL compound solution into the assay plates. The final volume of the assay was 50 μL. All compounds were tested at 5 × 1 0^−7 M in singlicate. The final DMSO concentration in the reaction cocktails was 1% in all cases. The compound dilution plate was disposed.
(§6) A radiometric protein kinase assay (33PanQinase® Activity Assay) was used for measuring the kinase activity of the two protein kinases. All kinase assays were performed in 96-well FlashPlatesTM from PerkinElmer (Boston, MA, USA) in a 50 μL reaction volume. The reaction cocktail was pipetted in 4 steps in the following order: 20 μL of assay buffer, 5 μL of ATP solution (in H2O), 5 μL of test compound (in 10% DMSO), 20 μL enzyme/subtrate mix. The assay for both protein kinases contained 70 mM HEPES-NaOH pH 7.5, 3 mM MgCl2, 3 mM MnCl2, 3 μM Na-orthovanadate, 1.2 mM DTT, ATP. The assay for ERBB2 additionally contained 50 μg/mLPEG20000. The reaction cocktails were incubated at 30 °C for 60 min. The reaction was stopped with 50 μL of 2% (v/v) H3PO4, plates were aspirated and washed two times with 200 μL 0.9% (w/v) NaCl. Incorporation of 33Pi was determined with a microplate scintillation counter (Microbeta, Wallac). All assays were performed with a BeckmanCoulter/SAGIAN™Core System. The median value of the counts in column 1 (n = 8) of each assay plate was defined as “low control”. This value reflects unspecific binding of radioactivity to the plate in the absence of a protein kinase but in the presence of the substrate. The median value of the counts in column 2 of each assay plate (n = 8) was taken as the “high control”. As part of the data evaluation the low control value from a particular plate was subtracted from the high control value as well as from all 80 “compound values” of the corresponding plate. The residual activity (in %) for each well of a particular plate was calculated by using the following formula: Res. Activity (%) = 100 × [(cpm of compound – low control)/(high control − low control)]

Test [4] concerns the target T2, EGF-R wt. Description: EGFR-wt protein kinase assay (33PanQinase), single concentration. Conditions: 0.5 μM (5 × 10^−7 M), singlicate, % of control activity; read-out: Residual activity under 0.5 μM drug concentration (%) EGF-R wt. As for the experimental part: as §5, §6

T2 sequence (P00533 25-1210): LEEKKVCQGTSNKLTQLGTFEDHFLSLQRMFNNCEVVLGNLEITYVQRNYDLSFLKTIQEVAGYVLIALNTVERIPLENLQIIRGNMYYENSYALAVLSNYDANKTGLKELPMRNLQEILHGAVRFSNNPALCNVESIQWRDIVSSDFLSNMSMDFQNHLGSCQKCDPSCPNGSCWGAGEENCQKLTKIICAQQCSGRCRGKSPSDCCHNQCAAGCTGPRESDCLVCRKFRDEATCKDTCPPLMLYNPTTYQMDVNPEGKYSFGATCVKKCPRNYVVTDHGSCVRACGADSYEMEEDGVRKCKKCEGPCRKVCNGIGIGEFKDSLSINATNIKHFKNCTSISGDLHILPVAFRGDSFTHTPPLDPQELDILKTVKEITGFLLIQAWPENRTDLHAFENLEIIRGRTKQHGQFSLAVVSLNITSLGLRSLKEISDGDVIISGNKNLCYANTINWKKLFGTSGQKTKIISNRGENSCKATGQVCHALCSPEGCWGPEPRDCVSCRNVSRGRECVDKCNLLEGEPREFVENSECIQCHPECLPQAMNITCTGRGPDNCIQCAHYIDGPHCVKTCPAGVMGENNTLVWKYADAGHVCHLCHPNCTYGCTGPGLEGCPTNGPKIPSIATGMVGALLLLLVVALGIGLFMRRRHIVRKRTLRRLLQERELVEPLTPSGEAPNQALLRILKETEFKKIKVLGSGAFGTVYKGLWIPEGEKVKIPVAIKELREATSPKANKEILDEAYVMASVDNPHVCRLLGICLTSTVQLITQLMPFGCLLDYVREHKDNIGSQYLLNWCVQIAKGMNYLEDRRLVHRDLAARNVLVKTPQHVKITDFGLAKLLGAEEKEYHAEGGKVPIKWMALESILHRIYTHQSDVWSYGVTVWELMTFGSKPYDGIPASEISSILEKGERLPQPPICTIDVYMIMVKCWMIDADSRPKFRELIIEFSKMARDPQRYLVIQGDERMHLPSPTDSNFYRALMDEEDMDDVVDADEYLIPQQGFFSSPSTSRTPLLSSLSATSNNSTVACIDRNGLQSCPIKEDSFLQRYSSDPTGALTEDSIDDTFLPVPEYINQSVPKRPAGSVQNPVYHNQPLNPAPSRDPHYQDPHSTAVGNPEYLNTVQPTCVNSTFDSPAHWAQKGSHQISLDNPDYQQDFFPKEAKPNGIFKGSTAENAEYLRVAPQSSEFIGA
EGF-R T790M/L858R, sequence (P00533 25-1210 T790M/L858R): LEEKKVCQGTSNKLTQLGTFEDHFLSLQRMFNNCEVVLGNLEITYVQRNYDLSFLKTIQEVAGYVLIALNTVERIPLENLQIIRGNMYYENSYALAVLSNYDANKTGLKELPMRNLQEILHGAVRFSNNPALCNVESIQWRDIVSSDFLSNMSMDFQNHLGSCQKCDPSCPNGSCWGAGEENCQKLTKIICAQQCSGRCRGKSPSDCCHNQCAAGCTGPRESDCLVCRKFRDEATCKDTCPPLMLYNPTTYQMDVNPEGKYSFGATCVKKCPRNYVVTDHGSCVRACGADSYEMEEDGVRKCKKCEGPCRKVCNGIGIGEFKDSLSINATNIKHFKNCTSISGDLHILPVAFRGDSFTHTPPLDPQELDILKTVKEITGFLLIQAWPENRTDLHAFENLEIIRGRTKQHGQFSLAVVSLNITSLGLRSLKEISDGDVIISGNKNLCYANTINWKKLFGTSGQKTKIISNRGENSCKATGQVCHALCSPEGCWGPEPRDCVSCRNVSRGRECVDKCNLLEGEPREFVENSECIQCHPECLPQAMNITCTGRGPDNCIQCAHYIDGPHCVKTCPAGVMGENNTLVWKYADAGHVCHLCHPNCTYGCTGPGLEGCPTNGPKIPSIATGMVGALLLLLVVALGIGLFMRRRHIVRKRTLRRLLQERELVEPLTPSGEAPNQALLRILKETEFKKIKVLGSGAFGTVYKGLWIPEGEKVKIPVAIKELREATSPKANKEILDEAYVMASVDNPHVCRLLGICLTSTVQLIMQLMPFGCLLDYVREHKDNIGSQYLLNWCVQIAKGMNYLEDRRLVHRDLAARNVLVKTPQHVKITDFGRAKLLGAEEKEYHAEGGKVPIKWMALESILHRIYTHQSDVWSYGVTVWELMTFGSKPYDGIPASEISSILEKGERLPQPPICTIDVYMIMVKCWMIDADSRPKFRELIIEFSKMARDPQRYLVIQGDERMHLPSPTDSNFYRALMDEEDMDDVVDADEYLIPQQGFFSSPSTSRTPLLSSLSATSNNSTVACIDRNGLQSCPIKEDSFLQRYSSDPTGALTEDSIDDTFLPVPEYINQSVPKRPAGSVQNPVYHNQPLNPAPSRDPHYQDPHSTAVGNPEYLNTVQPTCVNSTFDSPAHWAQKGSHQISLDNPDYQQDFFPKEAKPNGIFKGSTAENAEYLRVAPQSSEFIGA
EGF-R G719S, sequence (P00533 25-1210 G719S): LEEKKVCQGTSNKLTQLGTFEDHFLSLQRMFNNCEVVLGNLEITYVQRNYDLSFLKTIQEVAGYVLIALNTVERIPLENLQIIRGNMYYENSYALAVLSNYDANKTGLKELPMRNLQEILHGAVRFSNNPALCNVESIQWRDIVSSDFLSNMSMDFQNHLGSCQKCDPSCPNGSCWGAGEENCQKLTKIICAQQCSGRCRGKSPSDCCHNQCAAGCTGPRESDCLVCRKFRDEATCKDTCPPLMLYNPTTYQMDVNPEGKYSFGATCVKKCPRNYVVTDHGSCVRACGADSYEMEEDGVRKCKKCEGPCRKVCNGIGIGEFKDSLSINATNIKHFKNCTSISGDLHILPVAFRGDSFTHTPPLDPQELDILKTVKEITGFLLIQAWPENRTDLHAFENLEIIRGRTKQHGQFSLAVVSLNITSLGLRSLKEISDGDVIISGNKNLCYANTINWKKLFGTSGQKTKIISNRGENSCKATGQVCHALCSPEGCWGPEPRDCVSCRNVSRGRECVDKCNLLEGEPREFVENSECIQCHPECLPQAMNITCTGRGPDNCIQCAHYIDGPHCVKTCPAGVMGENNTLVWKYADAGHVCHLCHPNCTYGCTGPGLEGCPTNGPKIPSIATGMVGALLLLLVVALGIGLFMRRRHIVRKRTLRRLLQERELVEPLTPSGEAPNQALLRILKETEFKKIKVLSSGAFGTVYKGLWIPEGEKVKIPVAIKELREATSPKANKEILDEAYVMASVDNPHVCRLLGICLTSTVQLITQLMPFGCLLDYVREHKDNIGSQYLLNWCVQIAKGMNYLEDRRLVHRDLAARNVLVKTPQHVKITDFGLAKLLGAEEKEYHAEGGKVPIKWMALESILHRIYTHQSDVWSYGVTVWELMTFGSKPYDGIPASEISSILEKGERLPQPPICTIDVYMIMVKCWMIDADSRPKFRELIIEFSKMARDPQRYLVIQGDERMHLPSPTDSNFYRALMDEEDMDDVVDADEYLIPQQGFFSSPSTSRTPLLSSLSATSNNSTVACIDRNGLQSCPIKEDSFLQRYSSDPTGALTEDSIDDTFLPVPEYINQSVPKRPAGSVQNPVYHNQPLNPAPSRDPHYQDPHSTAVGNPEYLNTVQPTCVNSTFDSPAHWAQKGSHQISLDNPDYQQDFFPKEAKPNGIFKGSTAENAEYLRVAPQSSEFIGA

Turning to `C=CC(=O)N1CC2(CCN(C)CC2)c2cc(OC)c(Nc3ncc(C#N)c(Nc4ccc(OCc5ccccn5)cc4)n3)cc21` [Compound A1, 2-{[5-methoxy-1′-methyl-1-(prop-2-enoyl)-1,2-dihydrospiro[indole-3,4′ -piperidine]-6-yl]amino}-4-{[4-(pyridin-2-ylmethoxy)phenyl]amino}pyrimidine-5-carbonitrile], the half-maximal inhibitory concentration (IC50) on EGF-R L858R amounted to 86 nM; against EGF-R d752-759, 210 nM; against EGF-R T790M, 89 nM; against EGF-R L861Q it was 76 nM; at HER2 [1], 260 nM; on EGF-R T790M/L858R, 90 nM. The half-maximal inhibitory concentration (IC50) came to 61 nM at EGF-R wt [2], 53 nM against EGF-R d747-749/A750P and 200 nM against EGF-R G719S. In addition, the “inhibitory activity on EGFR mutant containing both T790M and L858R, times stronger than neratinib” value on EGF-R T790M/L858R was determined as 31 times. Further, the “biochemical activity on EGFR wt compared with neratinib” value at EGF-R wt [2] was “within five times”. Besides, the results for the remaining activity at 0.5 µM at HER2 [3] and at EGF-R wt [4] were 9% and 7%, respectively.

With `C=CC(=O)N1CC2(CCN(C)CC2)c2cc(OC)c(Nc3ncc(C#N)c(Nc4ccc(OCc5ccccn5)c(Cl)c4)n3)cc21` [Compound A2, 4-{[3-chloro-4-(pyridin-2-ylmethoxy)phenyl]amino}-2-{[5-methoxy-1′-methyl-1-(prop-2-enoyl)-1,2-dihydrospiro[indole-3,4′-piperidine]-6-yl]amino}pyrimidine-5-carbonitrile], the half-maximal inhibitory concentration (IC50) at EGF-R L858R stood at 81 nM; at EGF-R d752-759 it was 200 nM; on EGF-R T790M, 130 nM; against EGF-R L861Q it was 81 nM; on HER2 [1], 310 nM; on EGF-R T790M/L858R, 80 nM. The IC50 at EGF-R wt [2] was 59 nM; on EGF-R d747-749/A750P, 54 nM; against EGF-R G719S it was 240 nM. For the same compound, the “inhibitory activity on EGFR mutant containing both T790M and L858R, times stronger than neratinib” value on EGF-R T790M/L858R came out at 31 times. Also, the “biochemical activity on EGFR wt compared with neratinib” value on EGF-R wt [2] is reported as “within five times”. Besides, the figures for the remaining activity at 0.5 µM at HER2 [3] and on EGF-R wt [4] were 5% and 6%, respectively.
